Source: ChEMBL document CHEMBL5291721, “A preclinical secondary pharmacology resource illuminates target-adverse drug reaction associations of marketed drugs” (Nat Commun, 2023)

Key:
[1] = molecular target: T1, Beta-2 adrenergic receptor (Homo sapiens, UniProt P07550); assay type: functional, cell-based
[2] = molecular target: T2, Gastrin/cholecystokinin type B receptor (Homo sapiens, UniProt P32239)
T2 sequence (P32239 whole entry): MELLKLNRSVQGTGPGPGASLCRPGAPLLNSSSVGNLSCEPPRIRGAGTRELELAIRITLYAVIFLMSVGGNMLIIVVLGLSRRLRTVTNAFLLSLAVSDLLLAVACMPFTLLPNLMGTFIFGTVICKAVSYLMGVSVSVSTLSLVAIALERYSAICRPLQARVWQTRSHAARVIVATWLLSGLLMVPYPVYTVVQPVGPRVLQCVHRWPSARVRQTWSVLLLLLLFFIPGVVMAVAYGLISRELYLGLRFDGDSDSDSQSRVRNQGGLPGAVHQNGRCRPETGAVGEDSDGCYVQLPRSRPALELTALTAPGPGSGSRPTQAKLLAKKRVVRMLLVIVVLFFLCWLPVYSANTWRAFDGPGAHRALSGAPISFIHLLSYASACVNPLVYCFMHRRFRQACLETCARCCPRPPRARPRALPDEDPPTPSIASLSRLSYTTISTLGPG

[3] = molecular target: Gamma-aminobutyric acid receptor subunit alpha-1/alpha-2/beta-2/gamma-2 (Homo sapiens, UniProt P14867+P18507+P47869+P47870); assay type: functional, cell-based
Sequence of Gamma-aminobutyric acid receptor subunit alpha-1/alpha-2/beta-2/gamma-2 (P14867 whole entry): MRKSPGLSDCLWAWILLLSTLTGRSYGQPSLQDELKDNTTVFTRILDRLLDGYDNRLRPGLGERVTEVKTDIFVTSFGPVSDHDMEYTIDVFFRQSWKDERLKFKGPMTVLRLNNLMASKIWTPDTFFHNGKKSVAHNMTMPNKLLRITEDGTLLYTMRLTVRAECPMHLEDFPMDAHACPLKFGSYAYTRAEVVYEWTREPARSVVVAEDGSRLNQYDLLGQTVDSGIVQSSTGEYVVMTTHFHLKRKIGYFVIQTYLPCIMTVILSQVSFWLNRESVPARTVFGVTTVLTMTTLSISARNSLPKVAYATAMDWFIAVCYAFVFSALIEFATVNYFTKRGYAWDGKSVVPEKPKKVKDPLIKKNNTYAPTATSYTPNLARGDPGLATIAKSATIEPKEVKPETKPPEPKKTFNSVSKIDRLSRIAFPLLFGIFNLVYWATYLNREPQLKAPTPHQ
Sequence of Gamma-aminobutyric acid receptor subunit alpha-1/alpha-2/beta-2/gamma-2 (P47870 whole entry): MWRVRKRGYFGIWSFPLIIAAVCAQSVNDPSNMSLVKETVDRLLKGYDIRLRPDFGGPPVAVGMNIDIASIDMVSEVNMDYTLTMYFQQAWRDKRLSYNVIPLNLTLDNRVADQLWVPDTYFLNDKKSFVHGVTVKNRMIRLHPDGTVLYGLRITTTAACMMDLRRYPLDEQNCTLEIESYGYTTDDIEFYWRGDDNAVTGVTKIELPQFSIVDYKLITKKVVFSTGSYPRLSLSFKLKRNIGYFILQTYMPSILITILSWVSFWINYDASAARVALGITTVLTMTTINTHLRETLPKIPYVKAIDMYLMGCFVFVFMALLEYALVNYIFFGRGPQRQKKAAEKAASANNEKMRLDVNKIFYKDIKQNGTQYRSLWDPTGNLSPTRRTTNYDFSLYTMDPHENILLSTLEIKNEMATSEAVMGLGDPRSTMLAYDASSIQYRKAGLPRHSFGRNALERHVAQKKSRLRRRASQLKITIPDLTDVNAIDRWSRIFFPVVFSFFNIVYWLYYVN
Sequence of Gamma-aminobutyric acid receptor subunit alpha-1/alpha-2/beta-2/gamma-2 (P18507 whole entry): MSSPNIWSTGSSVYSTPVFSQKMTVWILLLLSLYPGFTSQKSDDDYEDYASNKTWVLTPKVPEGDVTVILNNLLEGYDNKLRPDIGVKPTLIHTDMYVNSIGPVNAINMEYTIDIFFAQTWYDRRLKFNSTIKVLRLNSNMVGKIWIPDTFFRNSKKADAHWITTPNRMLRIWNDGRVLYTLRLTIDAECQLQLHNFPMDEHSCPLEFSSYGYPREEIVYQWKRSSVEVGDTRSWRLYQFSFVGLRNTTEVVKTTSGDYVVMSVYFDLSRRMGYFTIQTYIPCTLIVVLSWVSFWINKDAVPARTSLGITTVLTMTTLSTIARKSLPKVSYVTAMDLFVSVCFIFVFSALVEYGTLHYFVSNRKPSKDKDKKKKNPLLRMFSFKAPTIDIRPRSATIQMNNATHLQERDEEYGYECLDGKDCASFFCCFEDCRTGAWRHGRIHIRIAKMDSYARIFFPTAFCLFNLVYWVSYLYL
Sequence of Gamma-aminobutyric acid receptor subunit alpha-1/alpha-2/beta-2/gamma-2 (P47869 whole entry): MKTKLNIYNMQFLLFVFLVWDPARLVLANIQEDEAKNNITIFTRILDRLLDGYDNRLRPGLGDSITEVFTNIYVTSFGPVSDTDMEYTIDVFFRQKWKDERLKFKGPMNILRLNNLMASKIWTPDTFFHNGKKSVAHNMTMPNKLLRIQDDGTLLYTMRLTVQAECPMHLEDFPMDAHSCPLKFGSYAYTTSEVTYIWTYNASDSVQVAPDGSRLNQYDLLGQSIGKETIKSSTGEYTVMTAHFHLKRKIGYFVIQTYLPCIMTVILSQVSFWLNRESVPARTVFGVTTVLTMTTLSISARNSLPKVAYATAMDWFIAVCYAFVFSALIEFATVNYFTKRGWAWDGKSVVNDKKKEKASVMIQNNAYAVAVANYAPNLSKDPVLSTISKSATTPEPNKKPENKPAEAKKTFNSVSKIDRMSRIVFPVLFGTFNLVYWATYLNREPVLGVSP

[4] = molecular target: T3, Alpha-1A adrenergic receptor (Homo sapiens, UniProt P35348)
T3 sequence (P35348 whole entry): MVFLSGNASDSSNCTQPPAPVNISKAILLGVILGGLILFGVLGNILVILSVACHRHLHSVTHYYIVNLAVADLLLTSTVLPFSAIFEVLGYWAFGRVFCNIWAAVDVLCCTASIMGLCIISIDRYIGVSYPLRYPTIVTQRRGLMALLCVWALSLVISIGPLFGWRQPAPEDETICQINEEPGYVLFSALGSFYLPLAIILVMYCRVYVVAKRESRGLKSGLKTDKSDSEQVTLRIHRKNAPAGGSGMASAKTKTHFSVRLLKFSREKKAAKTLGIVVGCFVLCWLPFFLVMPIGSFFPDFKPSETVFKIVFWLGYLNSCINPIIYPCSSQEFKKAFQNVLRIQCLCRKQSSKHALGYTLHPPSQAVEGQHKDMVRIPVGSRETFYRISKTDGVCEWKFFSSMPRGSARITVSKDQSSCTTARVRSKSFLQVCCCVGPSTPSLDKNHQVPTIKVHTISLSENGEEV

[5] = molecular target: T4, Alpha-2B adrenergic receptor (Homo sapiens, UniProt P18089)
T4 sequence (P18089 whole entry): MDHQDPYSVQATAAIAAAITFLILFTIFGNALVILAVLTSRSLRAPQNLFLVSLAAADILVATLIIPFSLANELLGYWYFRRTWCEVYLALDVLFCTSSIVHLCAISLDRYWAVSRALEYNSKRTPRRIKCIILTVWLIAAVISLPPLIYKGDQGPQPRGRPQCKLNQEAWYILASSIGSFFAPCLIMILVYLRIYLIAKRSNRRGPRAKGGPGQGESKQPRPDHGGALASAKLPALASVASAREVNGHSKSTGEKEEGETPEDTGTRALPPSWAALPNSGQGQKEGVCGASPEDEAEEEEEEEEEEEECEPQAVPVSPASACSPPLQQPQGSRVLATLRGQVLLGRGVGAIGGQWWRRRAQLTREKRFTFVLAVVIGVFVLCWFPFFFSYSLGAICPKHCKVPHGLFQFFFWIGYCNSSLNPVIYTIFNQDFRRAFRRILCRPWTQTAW

Androgen receptor = molecular target: T5, Androgen receptor (Rattus norvegicus, UniProt P15207); assay type: functional
T5 sequence (P15207 whole entry): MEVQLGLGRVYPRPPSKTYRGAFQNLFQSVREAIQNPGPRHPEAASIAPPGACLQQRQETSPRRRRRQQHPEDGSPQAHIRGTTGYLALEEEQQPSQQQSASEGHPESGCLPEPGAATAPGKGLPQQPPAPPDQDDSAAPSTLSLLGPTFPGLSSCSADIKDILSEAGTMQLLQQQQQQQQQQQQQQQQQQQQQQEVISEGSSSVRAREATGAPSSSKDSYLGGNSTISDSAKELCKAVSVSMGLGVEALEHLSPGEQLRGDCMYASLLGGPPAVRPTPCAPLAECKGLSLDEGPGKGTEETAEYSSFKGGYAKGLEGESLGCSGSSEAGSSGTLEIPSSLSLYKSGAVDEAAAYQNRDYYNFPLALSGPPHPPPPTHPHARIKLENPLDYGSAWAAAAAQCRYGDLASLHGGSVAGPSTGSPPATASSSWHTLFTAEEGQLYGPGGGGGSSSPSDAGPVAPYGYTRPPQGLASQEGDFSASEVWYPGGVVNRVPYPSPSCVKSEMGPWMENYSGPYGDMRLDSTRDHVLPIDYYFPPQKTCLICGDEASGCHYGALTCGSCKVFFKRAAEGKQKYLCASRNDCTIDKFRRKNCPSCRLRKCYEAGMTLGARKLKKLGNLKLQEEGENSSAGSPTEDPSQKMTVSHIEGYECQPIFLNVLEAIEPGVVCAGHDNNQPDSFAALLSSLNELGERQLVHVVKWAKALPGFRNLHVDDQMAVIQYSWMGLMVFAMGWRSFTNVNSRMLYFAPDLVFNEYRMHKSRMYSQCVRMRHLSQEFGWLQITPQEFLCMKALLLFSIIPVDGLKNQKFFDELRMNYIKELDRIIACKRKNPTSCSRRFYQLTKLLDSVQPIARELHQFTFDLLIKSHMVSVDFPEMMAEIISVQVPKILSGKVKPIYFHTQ

Vasopressin V1a receptor = Vasopressin V1a receptor (Homo sapiens, UniProt P37288)
Sequence of Vasopressin V1a receptor (P37288 whole entry): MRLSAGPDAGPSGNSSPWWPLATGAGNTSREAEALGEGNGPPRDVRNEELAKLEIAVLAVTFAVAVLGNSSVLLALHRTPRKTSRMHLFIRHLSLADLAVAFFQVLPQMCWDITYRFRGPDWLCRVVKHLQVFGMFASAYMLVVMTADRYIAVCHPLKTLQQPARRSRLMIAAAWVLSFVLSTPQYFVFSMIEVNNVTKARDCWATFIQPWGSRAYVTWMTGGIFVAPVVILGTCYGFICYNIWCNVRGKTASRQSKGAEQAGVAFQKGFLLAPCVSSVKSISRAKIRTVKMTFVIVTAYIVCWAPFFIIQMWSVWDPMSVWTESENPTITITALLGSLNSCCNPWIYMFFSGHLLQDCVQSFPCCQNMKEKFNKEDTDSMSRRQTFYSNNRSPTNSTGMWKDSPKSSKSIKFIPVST

[6] = molecular target: Muscarinic acetylcholine receptor M3 (Homo sapiens, UniProt P20309)
Sequence of Muscarinic acetylcholine receptor M3 (P20309 whole entry): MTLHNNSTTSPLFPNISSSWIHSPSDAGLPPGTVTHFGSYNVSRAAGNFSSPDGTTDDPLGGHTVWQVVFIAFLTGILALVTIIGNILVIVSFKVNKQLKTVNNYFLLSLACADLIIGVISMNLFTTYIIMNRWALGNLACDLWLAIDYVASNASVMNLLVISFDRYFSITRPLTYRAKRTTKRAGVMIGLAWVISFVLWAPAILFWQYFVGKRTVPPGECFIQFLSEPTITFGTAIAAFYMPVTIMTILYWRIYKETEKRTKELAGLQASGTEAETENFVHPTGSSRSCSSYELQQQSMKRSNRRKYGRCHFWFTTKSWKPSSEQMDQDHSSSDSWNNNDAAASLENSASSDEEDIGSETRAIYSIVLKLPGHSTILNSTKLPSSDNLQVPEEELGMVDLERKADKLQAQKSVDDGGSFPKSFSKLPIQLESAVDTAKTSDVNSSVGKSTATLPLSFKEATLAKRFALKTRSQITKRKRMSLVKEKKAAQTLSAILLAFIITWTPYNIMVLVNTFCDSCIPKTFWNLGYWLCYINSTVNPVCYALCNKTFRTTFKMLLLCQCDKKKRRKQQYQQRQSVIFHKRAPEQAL

Histamine H1 receptor = Histamine H1 receptor (Homo sapiens, UniProt P35367)
Sequence of Histamine H1 receptor (P35367 whole entry): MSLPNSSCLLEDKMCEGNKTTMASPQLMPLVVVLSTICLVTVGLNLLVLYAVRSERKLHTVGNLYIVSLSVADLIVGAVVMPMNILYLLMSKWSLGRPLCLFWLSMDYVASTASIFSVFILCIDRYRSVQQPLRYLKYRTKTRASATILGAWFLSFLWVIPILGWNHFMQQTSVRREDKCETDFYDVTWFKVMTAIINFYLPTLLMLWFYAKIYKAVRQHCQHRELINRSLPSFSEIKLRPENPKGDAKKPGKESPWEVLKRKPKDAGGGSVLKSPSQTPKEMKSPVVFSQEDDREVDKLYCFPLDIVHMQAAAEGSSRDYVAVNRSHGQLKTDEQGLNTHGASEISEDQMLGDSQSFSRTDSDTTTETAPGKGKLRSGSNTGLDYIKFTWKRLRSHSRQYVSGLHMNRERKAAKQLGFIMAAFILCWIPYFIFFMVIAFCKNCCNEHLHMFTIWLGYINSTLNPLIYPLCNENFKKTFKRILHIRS

[7] = molecular target: T6, 5-hydroxytryptamine receptor 2A (Homo sapiens, UniProt P28223); assay type: functional, cell-based
T6 sequence (P28223 whole entry): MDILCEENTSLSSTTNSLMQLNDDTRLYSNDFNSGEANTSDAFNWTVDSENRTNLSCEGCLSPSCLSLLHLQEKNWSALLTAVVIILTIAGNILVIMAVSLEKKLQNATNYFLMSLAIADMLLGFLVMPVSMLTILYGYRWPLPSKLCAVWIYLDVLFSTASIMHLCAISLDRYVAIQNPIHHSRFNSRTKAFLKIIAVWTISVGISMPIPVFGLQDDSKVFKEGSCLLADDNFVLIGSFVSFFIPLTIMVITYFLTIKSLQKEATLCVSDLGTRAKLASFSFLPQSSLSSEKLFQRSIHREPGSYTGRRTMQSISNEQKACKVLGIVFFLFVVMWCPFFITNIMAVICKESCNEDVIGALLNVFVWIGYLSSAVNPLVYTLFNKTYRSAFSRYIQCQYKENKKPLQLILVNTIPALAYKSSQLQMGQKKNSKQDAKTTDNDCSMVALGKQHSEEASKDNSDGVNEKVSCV

[8] = molecular target: T6, 5-hydroxytryptamine receptor 2A; assay type: functional, cell-based; remark: listed apart in the source
[9] = molecular target: T1, Beta-2 adrenergic receptor
Further: assay procedure not described here.

T1 sequence (P07550 whole entry): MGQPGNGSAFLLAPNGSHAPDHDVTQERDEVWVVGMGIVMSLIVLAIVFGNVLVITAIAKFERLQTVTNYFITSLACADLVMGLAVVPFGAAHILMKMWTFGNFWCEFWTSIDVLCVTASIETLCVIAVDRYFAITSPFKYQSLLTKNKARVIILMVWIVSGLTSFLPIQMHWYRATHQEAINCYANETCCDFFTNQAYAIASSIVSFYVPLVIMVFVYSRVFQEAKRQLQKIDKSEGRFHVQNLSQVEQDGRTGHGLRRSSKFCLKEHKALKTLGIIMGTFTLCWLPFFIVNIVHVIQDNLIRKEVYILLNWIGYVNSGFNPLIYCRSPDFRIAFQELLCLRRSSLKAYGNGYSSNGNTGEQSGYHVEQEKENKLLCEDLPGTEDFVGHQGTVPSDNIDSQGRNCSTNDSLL

Structure (SMILES)	AC50 [1] [µM]	AC50 [2] [µM]	AC50 [3] [µM]	AC50 [4] [µM]	AC50 [5] [µM]	AC50 (Androgen receptor) [µM]	AC50 (Vasopressin V1a receptor) [µM]	AC50 [6] [µM]	AC50 (Histamine H1 receptor) [µM]	AC50 [7] [µM]	AC50 [8] [µM]	AC50 [9] [µM]
Brc1c(NC2=NCCN2)ccc2nccnc12 [BRIMONIDINE]	> 30	> 30	> 30	–	–	–	–	–	–	–	–	–
NC(=O)CN1CC(O)CC1=O (centres undefined) [OXIRACETAM]	> 30	> 30	> 30	> 30	> 30	> 30	> 30	> 30	> 30	> 30	> 30	–
C[C@H]1COc2c(C3(N)CC3)c(F)cc3c(=O)c(C(=O)O)cn1c23 [PAZUFLOXACIN]	–	–	–	> 10	> 10	–	> 10	> 30	> 10	> 10	> 10	> 10
NC(=O)OCC(COC(N)=O)c1ccccc1 [FELBAMATE]	–	–	–	> 10	> 10	–	> 10	> 30	> 10	> 10	> 10	> 10
Clc1ccccc1C(c1ccccc1)(c1ccccc1)n1ccnc1 [CLOTRIMAZOLE]	> 30	–	–	> 10	–	–	–	–	–	–	–	15
CC(C)(C)NCC(O)COc1cccc2c1CCC(=O)N2 (centres undefined) [CARTEOLOL]	–	–	–	> 10	> 10	–	> 10	> 30	> 10	> 10	> 10	–
CC1(C)CCC(CN2CCN(c3ccc(C(=O)NS(=O)(=O)c4ccc(NCC5CCOCC5)c([N+](=O)[O-])c4)c(Oc4cnc5[nH]ccc5c4)c3)CC2)=C(c2ccc(Cl)cc2)C1 [VENETOCLAX]	> 30	–	–	–	–	> 30	–	–	> 30	–	–	–
O=C1C(O)=C([C@H]2CC[C@H](c3ccc(Cl)cc3)CC2)C(=O)c2ccccc21 [ATOVAQUONE]	–	> 30	–	> 30	> 30	> 30	> 30	> 30	> 30	> 30	> 30	> 30
Cc1nnc2n1-c1ccc(Cl)cc1C(c1ccccc1Cl)=NC2 [TRIAZOLAM]	–	> 30	–	> 10	> 10	–	> 30	> 30	> 10	> 30	> 30	> 10
Nc1nc(Cl)nc2c1ncn2[C@H]1C[C@H](O)[C@@H](CO)O1 [CLADRIBINE]	> 30	> 30	> 30	–	–	–	–	–	–	–	–	–
CC/C(=C(\c1ccccc1)c1ccc(OCCN(C)C)cc1)c1ccccc1 [TAMOXIFEN]	–	–	–	> 10	–	–	–	–	–	–	–	13.6
CC(CC1c2ccccc2CCc2ccccc21)CN(C)C (centres undefined) [BUTRIPTYLINE]	> 30	–	> 30	–	5	–	–	1.4	0.015	> 30	15	–
COc1cccc(C2(O)CCCCC2CN(C)C)c1 (centres undefined) [TRAMADOL]	> 30	> 30	–	> 10	–	–	> 10	–	–	–	–	> 10
COc1ccc2c3c1O[C@H]1[C@@H](O)CC[C@H]4[C@@H](C2)N(C)CC[C@@]341 [DIHYDROCODEINE]	> 30	–	> 30	–	> 30	–	–	> 30	> 30	> 30	> 30	–
C#C[C@]1(O)CC[C@H]2[C@@H]3[C@H](C)CC4=C(CCC(=O)C4)[C@H]3CC[C@@]21C [TIBOLONE]	> 30	> 30	–	–	–	–	–	–	–	–	–	–
Cc1cc(C(C)(C)C)c(O)c(C)c1CC1=NCCN1 [OXYMETAZOLINE]	> 30	–	> 30	–	–	> 30	–	–	–	–	–	–
Cc1c(OCC(F)(F)F)ccnc1C[S+]([O-])c1nc2ccccc2[nH]1 (centres undefined) [LANSOPRAZOLE]	–	22	–	> 10	–	–	> 10	–	–	–	–	> 10
COc1ccc(CCNCC(O)COc2cccc(C)c2)cc1OC (centres undefined) [BEVANTOLOL]	–	–	–	1.2	> 10	–	> 10	> 30	> 10	> 10	> 10	–
Fc1ccc(C(c2ccccc2)(c2ccccc2F)n2ccnc2)cc1 (centres undefined) [FLUTRIMAZOLE]	–	25	–	–	> 30	> 30	> 30	> 30	> 30	> 30	> 30	> 30
C[C@@H]1O[C@@H](O[C@@H]2C=C3CC[C@@H]4[C@H](CC[C@]5(C)[C@@H](c6ccc(=O)oc6)CC[C@]45O)[C@@]3(C)CC2)[C@H](O)[C@H](O)[C@H]1O [PROSCILLARIDIN]	> 30	> 30	–	–	–	> 30	–	–	–	–	–	–
